Data reported in PMC10521662 (Biodesign Research, 2022).

Biological target: T1, β-PGM (β-phosphoglucomutase) (Pyrococcus horikoshii, UniProt O58510)
T1 construct: gene PH0749; recombinant, plasmid pET20b-βpgm, E. coli BL21(DE3), purified
T1 sequence (O58510 1-230): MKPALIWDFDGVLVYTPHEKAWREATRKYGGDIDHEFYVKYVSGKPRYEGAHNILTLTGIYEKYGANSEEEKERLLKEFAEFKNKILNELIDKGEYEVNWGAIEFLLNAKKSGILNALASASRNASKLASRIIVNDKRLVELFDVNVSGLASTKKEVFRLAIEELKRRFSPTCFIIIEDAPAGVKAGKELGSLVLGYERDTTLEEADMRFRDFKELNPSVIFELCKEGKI
Test: G6P formation, G6PDH NADH assay at […] nm
Assay type: biochemical
Details: 10 mM β-G1P; 10 mM MgCl2; pH 7.0; 37 °C

O=P(O)(O)O[C@@H]1O[C@H](CO)[C@@H](O)[C@H](O)[C@H]1O [β-G1P]
G6P formation, G6PDH NADH assay at 340 nm: β-PGM was able to utilize β-G1P but showed no activity for α-G1P
